Reference: patent publication US12364764B2, “Sustained release thermosetting gels comprising sodium channel blockers and the methods of making same” (Pacira Therapeutics, Inc., priority 2019, dated 2025)

Experiment: Measured drug load / API content of funapide gel formulations
Type: physicochemical

drug concentration that can be loaded within the thermosensitive hydrogel formulation: up to 20 mg/mL
Structure (SMILES): O=C1N(Cc2ccc(C(F)(F)F)o2)c2ccccc2[C@]12COc1cc3c(cc12)OCO3 [funapide]
